Laboratory results published in US10131652B2, “Pyrimidinyloxy benzene derivatives as herbicides” (E. I. DU PONT DE NEMOURS AND COMPANY, priority 2014, dated 2018).

Tests used:
Format in all cases: in vivo
[1] = system: blackgrass (Alopecurus myosuroides); experiment: Test B postemergence plant response
Outline: (§1)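 Visual injury ratings, 0 = no effect to 100 = complete control, versus untreated controls approximately 10 days after postemergence spraying in greenhouse. Plants were at one- to two-leaf stage, 2 to 10 cm tall, in loam soil/sand blend; a dash denotes no result.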

[2] = system: galium (catchweed bedstraw, Galium aparine); experiment: Test B postemergence plant response
Outline: as §1

[3] = system: kochia (Kochia scoparia); experiment: Test D postemergence plant response
Description: (§2) At the same time, plants selected from these crop and weed species and also kochia (Kochia scoparia), wild oat (Avena fatua), and chickweed (common chickweed, Stellaria media) were planted in pots containing Redi-Earth® planting medium (Scotts Company, 14111 Scottslawn Road, Marysville, Ohio 43041) comprising spaghnum peat moss, vermiculite, wetting agent and starter nutrients and treated with postemergence applications of test chemicals formulated in the same manner. Plants ranged in height from 2 to 18 cm (1- to 4-leaf stage) for postemergence treatments. Treated plants and controls were maintained in a greenhouse for 13 to 15 days, after which time all species were compared to controls and visually evaluated. Plant response ratings, summarized in Table D, are based on a scale of 0 to 100 where 0 is no effect and 100 is complete control. A dash (-) response means no test result.

[4] = system: wild oat (Avena fatua); experiment: Test D postemergence plant response
Description: as §2

[5] = system: chickweed (common chickweed, Stellaria media); experiment: Test D postemergence plant response
Description: as §2

[6] = 125 g ai/ha, postemergence, 0 to 100 scale, 0 no effect, 100 complete control
[7] = Postemergence, 500 g ai/ha, 0 to 100 scale (0 no effect, 100 complete control)
[8] = Postemergence, 1000 g ai/ha, 0 to 100 scale (0 no effect, 100 complete control)
[9] = 31 g ai/ha, scale 0 to 100 (0 no effect, 100 complete control)
[10] = 62 g ai/ha, scale 0 to 100, 0 no effect, 100 complete control
[11] = 125 g ai/ha, scale 0 to 100, 0 no effect, 100 complete control
[12] = 31 g ai/ha, Postemergence, 0 to 100 scale, 0 no effect, 100 complete control
[13] = 16 g ai/ha, scale 0 to 100 (0 no effect, 100 complete control)
[14] = Postemergence, 31 g ai/ha, 0 to 100 scale (0 no effect, 100 complete control)

Row | SMILES | Plant response rating, Blackgrass [1, 6] | Plant response rating, Galium [2, 6] | Plant response rating (scale 0 to 100), Kochia ([3]; 16 g ai/ha) | Kochia plant response rating [3, 9] | Plant response rating, Kochia [3, 10] | Plant response rating, Kochia [3, 11] | Plant response rating (scale 0 to 100), Oat, Wild ([4]; 16 g ai/ha) | Oat, Wild plant response rating [4, 9] | Oat, Wild plant response rating [4, 10] | Plant response rating, Oat, Wild [4, 11] | Plant response rating (scale 0 to 100), Chickweed ([5]; 16 g ai/ha) | Chickweed plant response rating [5, 9] | Plant response rating, Chickweed [5, 10] | Plant response rating, Chickweed [5, 11] | Plant response rating, Oat, Wild [4, 10] | Chickweed plant response rating [5, 13] | further results
1 | Fc1cccc(Oc2ncc(Cl)cn2)c1-c1cc(C(F)(F)F)on1 [Compound 168, 5-chloro-2-[2-[5-(trifluoromethyl)-3-isoxazolyl]-3-fluorophenoxy]pyrimidine] | 90 | 100 | – | – | – | – | – | – | – | – | – | – | – | – | – | – | Plant response rating, Blackgrass [1, 7]: 90; Plant response rating, Galium [2, 7]: 100; pest or weed control at 31 g/ha ([3]; Bassia scoparia, post-emergence, 31 g ai/ha, scale 0 to 100 (0 no effect, 100 complete control), read-out: Kochia plant response rating): 100%; pest or weed control at 62 g/ha ([3]; Bassia scoparia, post-emergence, 62 g ai/ha, scale 0 to 100, 0 no effect, 100 complete control, read-out: Plant response rating, Kochia): 100%; pest or weed control at 125 g/ha ([3]; Bassia scoparia, post-emergence, 125 g ai/ha, scale 0 to 100, 0 no effect, 100 complete control, read-out: Plant response rating, Kochia): 100%; pest or weed control at 31 g/ha ([4]; Avena fatua, post-emergence, 31 g ai/ha, scale 0 to 100 (0 no effect, 100 complete control), read-out: Oat, Wild plant response rating): 10%; pest or weed control at 62 g/ha ([4]; Avena fatua, post-emergence, 62 g ai/ha, scale 0 to 100, 0 no effect, 100 complete control, read-out: Plant response rating, Oat, Wild): 20%; pest or weed control at 125 g/ha ([4]; Avena fatua, post-emergence, 125 g ai/ha, scale 0 to 100, 0 no effect, 100 complete control, read-out: Plant response rating, Oat, Wild): 30%; pest or weed control at 16 g/ha ([5]; Stellaria media, post-emergence, 16 g ai/ha, scale 0 to 100 (0 no effect, 100 complete control), read-out: Chickweed plant response rating): 65%; pest or weed control at 31 g/ha ([5]; Stellaria media, post-emergence, 31 g ai/ha, scale 0 to 100 (0 no effect, 100 complete control), read-out: Chickweed plant response rating): 98%; pest or weed control at 62 g/ha ([5]; Stellaria media, post-emergence, 62 g ai/ha, scale 0 to 100, 0 no effect, 100 complete control, read-out: Plant response rating, Chickweed): 100%; pest or weed control at 125 g/ha ([5]; Stellaria media, post-emergence, 125 g ai/ha, scale 0 to 100, 0 no effect, 100 complete control, read-out: Plant response rating, Chickweed): 100%
2 | Clc1cnc(Oc2ccccc2-c2cc(Cl)sn2)nc1 [Compound 192] | – | – | 50 | 80 | 90 | 95 | 0 | 0 | 0 | 5 | 0 | 50 | 50 | 55 | – | – | Plant response rating, Blackgrass [1, 8]: 90; Plant response rating, Galium [2, 8]: 100
3 | N#Cc1cccc(Oc2ncc(Cl)cn2)c1-c1cc(C(F)F)on1 [Compound 180] | 90 | 100 | 85 | 90 | 100 | 100 | 0 | 5 | 5 | 30 | 60 | 60 | 85 | 95 | – | – | Plant response rating, Blackgrass [1, 7]: 90; Plant response rating, Galium [2, 7]: 100
4 | Fc1ccc(Oc2ncc(Cl)cn2)c(-c2cc(C(F)F)on2)c1F [Compound 113] | 90 | 100 | – | 100 | 100 | 100 | – | 15 | – | 25 | – | 85 | 90 | 95 | 10 | 70 | Plant response rating, Blackgrass [1, 12]: 60; Plant response rating, Galium [2, 12]: 90; Kochia plant response rating [3, 13]: 90; Oat, Wild plant response rating [4, 13]: 10
5 | CC(F)(F)c1cc(-c2ccccc2Oc2ncc(Cl)cn2)no1 [Compound 220] | 90 | 100 | 100 | – | – | – | 5 | – | – | – | 40 | – | – | – | – | – | Plant response rating, Blackgrass [1, 14]: 60; Plant response rating, Galium [2, 14]: 90; Plant response rating (scale 0 to 100), Kochia ([3]; 2 g ai/ha): 20; Plant response rating (scale 0 to 100), Kochia ([3]; 4 g ai/ha): 50; Plant response rating (scale 0 to 100), Kochia ([3]; 8 g ai/ha): 100; Plant response rating (scale 0 to 100), Oat, Wild ([4]; 2 g ai/ha): 0; Plant response rating (scale 0 to 100), Oat, Wild ([4]; 4 g ai/ha): 0; Plant response rating (scale 0 to 100), Oat, Wild ([4]; 8 g ai/ha): 0; Plant response rating (scale 0 to 100), Chickweed ([5]; 2 g ai/ha): 5; Plant response rating (scale 0 to 100), Chickweed ([5]; 4 g ai/ha): 10; Plant response rating (scale 0 to 100), Chickweed ([5]; 8 g ai/ha): 40
6 | CC(F)(F)c1cc(-c2ccccc2Oc2ncc(Cl)cn2)on1 [Compound 178] | 40 | 100 | 90 | 95 | 100 | 100 | 0 | 0 | 5 | 5 | 50 | 50 | 60 | 80 | – | – | Plant response rating, Blackgrass [1, 14]: 10; Plant response rating, Galium [2, 14]: 80
7 | Fc1cccc(Oc2ncc(Cl)cn2)c1-c1cc(C2CC2)on1 [Compound 130] | 80 | 90 | – | 95 | 100 | 100 | – | 15 | – | 60 | – | 80 | 80 | 95 | 35 | 80 | Plant response rating, Blackgrass [1, 12]: 50
8 | FC(F)(F)c1cc(-c2c(Cl)cccc2Oc2ncc(Cl)cn2)no1 [Compound 169] | 50 | 100 | – | 60 | 90 | 95 | – | 5 | – | 10 | – | 40 | 70 | 80 | 5 | 5 | Plant response rating, Blackgrass [1, 7]: 90; Plant response rating, Galium [2, 7]: 100
9 | FCc1cc(-c2c(Br)cccc2Oc2ncc(Cl)cn2)no1 [Compound 191] | – | – | 50 | 80 | 85 | 90 | 0 | 0 | 5 | 5 | 50 | 55 | 70 | 90 | – | – | Plant response rating, Blackgrass [1, 8]: 100; Plant response rating, Galium [2, 8]: 100
10 | FCc1cc(-c2c(F)cccc2Oc2ncc(Cl)cn2)no1 [Compound 57] | – | – | – | 90 | 95 | 100 | – | 0 | – | 15 | – | 50 | 55 | 75 | 5 | 30 | Plant response rating, Blackgrass [1, 8]: 90; Plant response rating, Galium [2, 8]: 90; Kochia plant response rating [3, 13]: 75; Oat, Wild plant response rating [4, 13]: 0
11 | Cc1cc(-c2c(F)cccc2Oc2ncc(Cl)cn2)on1 [Compound 229] | 80 | 100 | 85 | 90 | 98 | 98 | 0 | 10 | 10 | 10 | 60 | 60 | 80 | 85 | – | – | Plant response rating, Blackgrass [1, 14]: 30; Plant response rating, Galium [2, 14]: 80
